Consider eleven molecules from patent US20240300945A1, “CLY SERIES COMPOUND, PREPARATION METHOD THEREFOR AND USE THEREOF IN PREPARATION OF DRUGS” (NANJING WELLBEST PHARMACEUTICAL CO., LTD, priority 2021, published 2024).

The test system of test [1] is chloasma model of guinea pig. In words: Chloasma model of guinea pig: tyrosine, MDA content and SOD activity of skin tissue. It is filed as in vivo. Conditions: 0.25% cream on the skin once a day, 30 days. An excerpt: 1.1.4 Preparation method of treatment cream: The excipient matrix components include methyl silicone oil (15%), stearic acid (6%), white vaseline (5%), liquid paraffin (5%), octadecanol (5%), glycerin (20%), alkyl aryl polyglycol ether (1%), fatty alcohol polyoxyethylene ether (1%), […] (1%), ethyl paraben (0.1%), distilled water (about 31-55%), and are mixed with appropriate amount of CLY series compounds to form 0.25% mixed emulsion. The cream matrix used in this embodiment refers to the matrix components after the active ingredients are removed from the cream.
According to the body weight, they were randomly divided into the model control group (applied cream matrix), blank control group (applied cream matrix), CLY-1 treatment group (applied 0.25% CLY-1 cream on the skin), CLY-2 treatment group (0.25% CLY-2 cream on the skin), CLY-3 treatment group (0.25% CLY-3 cream on the skin), CLY-4 treatment group (0.25% CLY-4 cream on the skin), CLY-5 treatment group (0.25% CLY-5 cream on the skin) CLY-8 treatment group (0.25% CLY-8 cream on the skin), CLY-11 treatment group (0.25% CLY-11 cream on the skin), CLY-19 treatment group (0.25% CLY-19 cream on the skin), CLY-36 treatment group (0.25% CLY-36 cream on the skin), CLY-39 treatment group (0.25% CLY-39 cream on the skin), positive treatment group (0.25% arbutin cream on the skin), 6 in each group. In addition to the blank control group, all guinea pigs in the other groups were injected with 20 mg/ml progesterone injection (7.5 mg/kg) into the muscle at the root of the hind leg, once a day, for 30 consecutive days to establish the chloasma model. […] After modeling, the guinea pigs in the model control group, blank control group, each CLY series treatment group, and positive treatment group were treated with corresponding cream on the back for intervention, once a day, for 30 consecutive days.
Took one piece of skin tissue from each guinea pig, separately. Washed it with precooled normal saline, removed subcutaneous fat and other connective tissue, and then wiped it dry. Each piece of skin tissue was cut to 0.5 g. Then put it into five small tubes containing 2.0 ml of precooled normal saline. The high-speed dispersion machine homogenizes at a speed of […], lasted for 10 seconds, repeated once, centrifuged at a speed of 3500 r/m for 15 minutes, and took the supernatant. Tyrosine was determined by HPLC, MDA was determined by the thiobarbituric acid method, SOD was determined by the xanthine oxidase method, and tyrosine, MDA content, and SOD activity were determined according to the instructions of the kit.
SPSS16.0 software was used for statistics. The measurement data were expressed by mean±standard deviation (x±s). The comparison between multiple groups was performed by one-way ANOVA, and the comparison between groups was performed by t-test. P<0.05 was statistically significant.

The test system of test [2] is mouse hair loss model. In words: Mouse hair loss (androgenic alopecia) model: hair length. The format is in vivo, C57BL/6 mice. Conditions: mouse AGA model; external 2% tincture twice a day. The source says: (1) Preparation method of tincture of compounds CLY-1, CLY-2, CLY-3, CLY-4, CLY-8, CLY-11, CLY-19, CLY-36, and CLY-39: 60% ethanol was mixed with the above compounds to prepare a tincture of 2% concentration.
(2) Positive treatment drug: 2% minoxidil tincture (produced by the Institute of Dermatology, Chinese Academy of Medical Sciences)
The experimental mice were divided into the negative control group (external use of 60% ethanol), model group (external use of 60% ethanol), positive control group (external use of 2% minoxidil tincture), CLY-1 external treatment group (external use of 2% CLY-1 tincture), CLY-2 external treatment group (external use of 2% CLY-2 tincture), CLY-3 external treatment group (external use of 2% CLY-3 tincture), CLY-4 external treatment group (external use of 2% CLY-4 tincture), CLY-8 external treatment group (external use of 2% CLY-8 tincture) CLY-11 external treatment group (2% CLY-11 tincture), CLY-19 external treatment group (2% CLY-19 tincture), CLY-36 external treatment group (2% CLY-36 tincture), and CLY-39 external treatment group (2% CLY-39 tincture). There were 6 animals in each group, half male and half female. An area of 4 cm×5 cm from the back of experimental mice with hair removed was selected, and the hair removal area was painted yellow with 3% picric acid solution to determine the observation area of the hair removal experiment. In addition to the negative control group, mice in other groups were injected subcutaneously with testosterone propionate injection [8 ml/(kg·d)] at the back of the neck, once a day, for 60 consecutive days, to establish the model of androgenic alopecia (AGA). At the same time of modeling, the rats in the corresponding drug group were smeared with drugs on the observation area of the back at the rate of 1 ml/(piece·time), twice a day, with an interval of 2 hours. The normal control group and the model control group were smeared with the excipient (60% ethanol solution), 1 ml/(one time), twice a day, for 60 consecutive days.
10 hairs were extracted from the observation area on the back of each mouse every 15 days after administration, and the hair length was measured with a vernier caliper. After 60 days of administration, the skin of the experimental observation area was taken for routine tissue dehydration, paraffin embedding, HE staining, and light microscopy to observe the histopathological changes of mouse skin hair follicles and sebaceous glands. Semi-quantitative analysis was performed for each group. The grading criteria are as follows: the normal structure of dermal tissue cells, subcutaneous hair follicles, and sebaceous glands is marked as […]: no hyperplasia of dermal tissue is found, the lesions of hair follicles and sebaceous glands are limited, and no inflammation is found under the skin is marked as “+”: no obvious hyperplasia of dermal tissue is found, and the follicles are obviously cystic. No obvious hyperplasia of sebaceous glands is found, and no inflammation is found under the skin is marked as “+”: the dermal tissue has segmental hyperplasia, which is not obvious, A small number of hair follicles have cystic changes, and the sebaceous glands have mild hyperplasia and hypertrophy. There is no obvious inflammation under the skin, which is marked as “++”: the dermal tissue cells of the skin have different degrees of segmental hyperplasia, and some hair follicles have cystic changes, showing uneven size of hair follicles, and no cells around. The sebaceous glands have hyperplasia, and the nuclei in the proliferative glands are few. A few subcutaneous mild inflammatory hyperplasia is marked as “+++”.

Marks after values point to notes of the source that are not given here.

In test [1], `CCN1CCC[C@@H](N(C(=O)c2ccc(-n3nnc4cccnc43)cc2)c2ncccc2Cl)C1` [CLY-2, (R)-4-(3H-[1,2,3]triazolo[4,5-b]pyridin-3-yl)-N-(3-chloropyridin-2-yl)-N-(1-ethylpiperidin-3-yl)benzamide] displayed an MDA of 10.86 ± 1.19 nmol/mL, an SOD of 105.23 ± 9.82 NU/ml and a tyrosine of 0.43 ± 0.06 µg. For the same molecule, in test [2], the 15-day hair length is given as 0.676* cm, the 30-day hair length is given as 0.865* cm, the 45-day hair length is recorded as 0.869* cm and the 60-day hair length is 0.962* cm.

For `CN1CCC[C@@H](N(C(=O)c2ccc(-n3nnc4cccnc43)cc2)c2ncccc2Cl)C1` [CLY-1, (R)-4-(3H-[1,2,3]triazolo[4,5-b]pyridin-3-yl)-N-(3-chloropyridin-2-yl)-N-(1-methylpiperidin-3-yl)benzamide], in test [1], the MDA is 11.32 ± 1.15 nmol/mL, the SOD worked out at 103.65 ± 9.63 NU/ml and the tyrosine is 0.45 ± 0.07 µg. Besides, in test [2], the 15-day hair length is 0.653* cm, the 30-day hair length is 0.851* cm, the 45-day hair length is 0.858* cm and the 60-day hair length is reported as 0.951* cm.

As to `Nc1ccccc1-c1ccc(C(=O)N(c2ncccc2Cl)[C@@H]2CCCNC2)cc1` [CLY-39], in test [1], the MDA stood at 10.81 ± 1.23 nmol/mL, the SOD was determined as 103.16 ± 9.65 NU/ml and the tyrosine was found to be 0.46 ± 0.05 µg. Moreover, in test [2], the 15-day hair length is 0.665* cm, the 30-day hair length is given as 0.845* cm, the 45-day hair length is 0.867* cm and the 60-day hair length is on record as 0.956* cm.

For `COC1CCCC(N(C(=O)c2ccc(-n3nnc4cccnc43)cc2)c2ncccc2Cl)C1` (stereo not shown) [CLY-5], in test [1], the MDA worked out at 10.65 ± 1.14 nmol/mL, the SOD worked out at 105.89 ± 9.86 NU/ml and the tyrosine worked out at 0.43 ± 0.05 µg.

Regarding `CNC1CCCC(N(C(=O)c2ccc(-n3nnc4cccnc43)cc2)c2ncccc2Cl)C1` (stereo not shown) [CLY-3], in test [1], the MDA was 11.57 ± 1.18 nmol/mL, the SOD was 97.45 ± 9.23 NU/ml and the tyrosine is 0.51 ± 0.07 µg. Moreover, in test [2], the 15-day hair length is 0.646* cm, the 30-day hair length is recorded as 0.843* cm, the 45-day hair length is reported as 0.847* cm and the 60-day hair length was 0.946* cm.

Turning to `O=C(c1ccc(-n2nnc3cccnc32)cc1)N(c1ncccc1Cl)[C@@H]1CCNC1` [CLY-8, (R)-4-(3H-[1,2,3]triazolo[4,5-b]pyridin-3-yl)-N-(3-chloropyridin-2-yl)-N-(pyrrolidin-3-yl)benzamide], in test [1], the MDA is 10.59 ± 1.12 nmol/mL, the SOD stood at 105.68 ± 9.75 NU/ml and the tyrosine was 0.43 ± 0.03 µg. For the same molecule, in test [2], the 15-day hair length is 0.682 * cm, the 30-day hair length is 0.872* cm, the 45-day hair length is 0.886* cm and the 60-day hair length was 0.971* cm.

`Nc1cc(N2CCCCC2)nc(N)[n+]1[O-]` [Positive control group, minoxidil, reference compound]: in test [2], the 15-day hair length is listed as 0.591* cm, the 30-day hair length was 0.814* cm, the 45-day hair length came out at 0.825 cm and the 60-day hair length is 0.842* cm.

In test [1], `NC1CCCC(N(C(=O)c2ccc(-n3nnc4cccnc43)cc2)c2ncccc2Cl)C1` (stereo not shown) [CLY-11] returned an MDA of 11.62 ± 1.21 nmol/mL, an SOD of 95.13 ± 9.16 NU/ml and a tyrosine of 0.54 ± 0.06 µg. Besides, in test [2], the 15-day hair length was 0.637* cm, the 30-day hair length is 0.831* cm, the 45-day hair length is reported as 0.834* cm and the 60-day hair length was 0.932* cm.

Turning to `O=C(c1ccc(-c2ccccc2-c2nnn[nH]2)cc1)N(c1ncccc1Cl)[C@@H]1CCCNC1` [CLY-19], in test [1], the MDA was determined as 11.75 ± 1.26 nmol/mL, the SOD amounted to 96.53 ± 9.21 NU/ml and the tyrosine amounted to 0.56 ± 0.07 µg. In test [2], the 15-day hair length is recorded as 0.623* cm, the 30-day hair length is 0.826* cm, the 45-day hair length is recorded as 0.828* cm and the 60-day hair length is 0.915* cm.

As to `O=C(c1ccc(-c2ccccc2Cl)cc1)N(c1ncccc1Cl)[C@@H]1CCCNC1` [CLY-36], in test [1], the MDA was determined as 11.83 ± 1.27 nmol/mL, the SOD is on record as 93.42 ± 9.03 NU/ml and the tyrosine stood at 0.58 ± 0.08 µg. For the same molecule, in test [2], the 15-day hair length is 0.628* cm, the 30-day hair length is on record as 0.824* cm, the 45-day hair length is 0.823* cm and the 60-day hair length was 0.919* cm.

For `O=C(c1ccc(-n2nnc3cccnc32)cc1)N(c1ncccc1Cl)C1CCCC(O)C1` (stereo not shown) [CLY-4], in test [1], the MDA is 11.62 ± 1.15 nmol/mL, the SOD is reported as 95.12 ± 8.65 NU/ml and the tyrosine worked out at 0.53 ± 0.06 µg. Moreover, in test [2], the 15-day hair length was 0.641* cm, the 30-day hair length is 0.837* cm, the 45-day hair length is recorded as 0.841* cm and the 60-day hair length is 0.939* cm.
